PubChem BioAssay (NCI)
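Growth conditions: 96-well plates. Treatment: test compound, 48 hours, 5 concentrations. Analysis: linear interpolation between bracketing concentrations; unreached endpoints set to highest concentration. TGI denotes the concentration required for complete inhibition of growth.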

What was measured:
Assay in all cases: NCI-60 cell line screen, 48 h
HCC-2998 colon = test system: HCC-2998 colon
IGROV1 ovarian = test system: IGROV1 ovarian
NCI-H522 lung = test system: NCI-H522 lung
SK-MEL-28 melanoma = test system: SK-MEL-28 melanoma
UACC-257 melanoma = test system: UACC-257 melanoma
UACC-62 melanoma = test system: UACC-62 melanoma
CAKI-1 renal = test system: CAKI-1 renal
SNB-75 CNS = test system: SNB-75 CNS
786-0 renal = test system: 786-0 renal
BT-549 breast = test system: BT-549 breast
DU-145 prostate = test system: DU-145 prostate

| Compound | TGI (HCC-2998 colon) [µM] | TGI (IGROV1 ovarian) [µM] | TGI (NCI-H522 lung) [µM] | TGI (SK-MEL-28 melanoma) [µM] | TGI (UACC-257 melanoma) [µM] | TGI (UACC-62 melanoma) [µM] | TGI (CAKI-1 renal) [µM] | TGI (SNB-75 CNS) [µM] | TGI (786-0 renal) [µM] | TGI (BT-549 breast) [µM] | TGI (DU-145 prostate) [µM] |
| --- | --- | --- | --- | --- | --- | --- | --- | --- | --- | --- | --- |
| Cc1nc2c(sc(=S)n2-c2ccccc2)c(=O)[nH]1 | > 100 | > 100 | > 100 | > 100 | > 100 | > 100 |  |  |  |  |  |
| COc1ccc(C2N(NC(=O)c3ccncc3)C(=O)CS2(=O)=O)cc1F (centres undefined) | > 100 |  | > 100 | > 100 | > 100 |  | > 100 | > 100 |  |  |  |
| COc1ccc(-c2cc(-c3ccc(Nc4ccnc5cc(Cl)ccc45)cc3)[nH]c(=O)c2C#N)c2ccccc12 | > 92.9 | > 79.1 |  | 42.3 | 99.4 | 46.7 | 48.4 | 95.4 | 18.3 | 71.7 | > 32.7 |
| COc1ccccc1Cc1nc(-c2ccccc2)nn(C2OC(COC(C)=O)C(OC(C)=O)C(OC(C)=O)C2OC(C)=O)c1=S (centres undefined) | > 43.2 | > 93.9 | 36.4 | > 100 | > 100 | > 80.3 | 32.9 | 15.4 |  |  |  |
| COc1ccc(-n2c(=O)n(C)c(=O)n2-c2ccc(OC)cc2)cc1 |  | > 100 |  | > 100 | > 100 | > 100 | > 100 | > 100 | > 100 | > 100 | > 100 |
| C(CCCCc1nnc(N2CCCCC2)o1)CCCc1nnc(N2CCCCC2)o1 | > 100 | > 100 | > 100 | > 100 | > 100 |  | > 100 | > 100 | > 100 | > 100 | > 100 |
| Oc1c([Si](c2ccccc2)(c2ccccc2)c2ccccc2)cc2ccccc2c1-c1c(O)c([Si](c2ccccc2)(c2ccccc2)c2ccccc2)cc2ccccc12 | > 100 | > 100 | > 100 | > 100 | > 100 | > 100 | > 100 | > 100 | > 100 |  | > 100 |
| COc1cc2c(cc1OC)C(Cl)C(c1ccc(Cl)c(Cl)c1)=C2Cl (centres undefined) |  | 28.9 | > 100 | 32.7 |  | 18.7 | 25.1 | 23.9 |  |  |  |
| NCCCN(CCCN)CCN(CCN(CCCN)CCCN)CCN(CCCN)CCCN | > 100 | > 100 | 63.3 | > 100 | > 100 |  | > 100 | 22.9 |  |  | > 100 |
| CC(=O)Nc1ccc(OC2=CCN(C)CC2)cc1 | > 100 | > 100 |  | > 100 | > 100 | > 100 | > 100 | > 100 | > 100 | > 100 | > 100 |
| O=C(O)c1ccn(-c2cccc(-n3ccc(C(=O)O)n3)n2)n1 |  | > 100 | > 100 | > 100 | > 100 | > 100 | > 100 | > 100 | > 100 | > 100 | > 100 |
| CC1(c2ccc[n+](Cc3ccccc3)c2)OCCO1 | > 100 | > 100 | > 100 |  | > 100 | > 100 | > 100 | > 100 | > 100 |  |  |
| COC(=O)c1c(O)ccc2c1c1c(n2Cc2cccc(C)c2)C(=O)c2ccccc2C1=O | 6.36 | 24.2 | 26.8 | 29.1 | 31.2 |  | 25.7 |  | 25.8 | 29 | 32.6 |
| CCOC(=O)C(NC(=O)CC)(Nc1cc(C)on1)C(F)(F)F (centres undefined) | > 100 | > 100 |  | > 100 | > 100 |  |  | > 100 | > 100 | > 100 |  |
| Cc1cn(Cc2cnnn2CC2OC(n3cc(C)c(=O)[nH]c3=O)CC2O)c(=O)[nH]c1=O (centres undefined) | > 100 | > 100 |  | > 100 | > 100 | > 100 | > 100 |  |  | > 100 | > 100 |
| COc1cc2cc[n+]3c(C)c4cc(OC)c(OC)cc4c([O-])c3c2cc1OC | > 100 | 72.8 | 42 | > 100 | > 100 | > 100 | > 100 | > 100 |  |  |  |
| O=C(OCCN=c1c2ccccc2ccc2ccccc12)c1ccc([N+](=O)[O-])cc1 | > 100 | > 100 |  | > 100 | > 100 | > 100 | > 100 | > 100 | > 100 | > 100 | > 100 |
| CCOC(=O)c1cc2c3c(c(C(C)=O)c(O)c2[nH]1)N(CC(C)CC)CC3 (centres undefined) |  | > 100 | > 100 | > 100 | > 100 | > 100 | > 100 | > 100 | > 100 | > 100 | > 100 |
| CN(C)c1nc2oc(-c3ccccc3)c(-c3ccccc3)c2c2nnnn12 | > 100 | > 100 | > 100 | > 100 | > 100 | > 100 | > 100 | > 100 | > 100 |  | > 100 |
| NNC(=O)Cn1c2ccc(Br)cc2c2nc3ccccc3nc21 |  | > 100 |  | > 100 | > 100 | > 100 | > 100 | > 100 | > 100 | > 100 | > 100 |
| C/C(Nc1ccc(F)cc1)=C1/CCOC1=O | > 100 | > 100 | > 100 | > 100 | > 100 | > 100 |  | > 100 | > 100 | > 100 | > 100 |
| CN1CCN(CCCBr)CC1 |  | > 100 | > 100 | > 100 | > 100 | > 100 |  | > 100 | > 100 | > 100 | > 100 |
| CCOC(=O)c1nc2ccc(C(F)(F)F)cc2nc1Oc1cc(OC)cc(OC)c1 |  | > 100 |  | > 100 | > 100 | > 100 |  | 75.6 | > 100 | > 100 | > 100 |
